{"source": "patent US20230312652A1", "about": "“NOVEL PEPTIDES AND USES THEREOF” (Aarhus Universitet, priority 2020, published 2023)", "key": {"[1]": {"tested_on": "HTT in GM04719 fibroblasts", "assay": "Huntingtin levels in Huntington's patient-derived fibroblasts (GM04719), western blotting", "format": "cell-based, human", "description": "GM04719 was seeded at 30,000-50,000 per well in a 96-well. The following day, the cells were treated with 1 uM of P1 and incubated at 37° C. and 5% CO2 at timepoints 0-24 hours. Hereafter, the cells were lysed in RIPA lysis buffer containing cOmplete cocktail protease inhibitor. Total Huntingtin levels were analysed using antibody mab2166 (Sigma-Aldrich) by western blotting and normalized to beta-actin. To determine, whether P1 also clears the healthy allele, we further assessed levels of total HTT in fibroblast derived from a healthy individual (GM01650E), bought from Coriell Biobank.\nTo get a direct measurement and further validation of the selective degradation of the disease-allele another study was carried out in GM04719 fibroblasts. Here, at 30,000-50,000 were seeded per well in a 96-well. The following 3 days, the cells were treated with 1 uM of P1 every 24 hour and during this incubated at 37° C. and 5% CO2. 24 hours after third treatment, the cells were lysed in RIPA lysis buffer containing cOmplete cocktail protease inhibitor. Mutated Huntingtin levels were measured using antibody, which only detects the disease-allele (MW1 ab). Total Huntingtin levels were likewise analysed using antibody mab2166 and both were normalized to beta-actin."}, "BDNF, TFEB and PGC1a": {"tested_on": "BDNF, TFEB and PGC1a", "assay": "CREB-downstream target levels in wild-type cortical neurons", "format": "cell-based, mouse", "conditions": "1 uM, 4 hours or 6 hours", "description": "Cortical neurons were isolated from p0 wild-type mice and seeded in a density of 200,000 per well (24-well tray). After 7 days in vitro the neurons were stimulated with 1 uM P1 in neurobasal A media and incubated at 37° C. and 5% CO2 for 4 hours or 6 hours. Hereafter, the neurons were lysed in RIPA lysis buffer containing cOmplete cocktail protease inhibitor."}, "CREB": {"tested_on": "CREB", "assay": "CREB activation in striatum and hippocampus of wild-type mice after IV injection", "format": "in vivo, mouse", "conditions": "0.26 mg/kg IV, 1 hour after injection", "description": "To assess this, 8 weeks old wild-type mice were injected intravenously with either 0.26 mg/kg of peptide P1 or LP1 dissolved in saline. 1 hour after the injection, the mice were sacrificed by cervical dislocation and striatal tissue was isolated by dissection and immediately lysed using a TissueLyser in lysis buffer containing cOmplete and DTT. The samples were subsequently homogenized by sonication. The phosphorylation of CREB on serine 133 was subsequently validated by western blotting. The levels of phosphorylated CREB were normalized to the corresponding beta-actin levels. Student's t-test was used for statistical analysis."}, "[2]": {"tested_on": "pCREB, TFEB, LAMP1, p62/SQSTM1, PGRN, PGC1a", "assay": "Pathway engagement in striatum of wild-type mice after SC injection, western blotting", "format": "in vivo, mouse", "conditions": "13 mg/kg SC", "description": "Wild-type mice were injected with 13 mg/kg of P1 (SEQ ID NO: 1) subcutaneously in 4.38 mM L-His, 140 mM NaCl, 0.2% Tween-20 and 1500 IU hyaluronidase (pH 6.15). The mice were sacrificed at timepoints between 2-8 hours after injection. Striatal tissue was isolated and the tissue was lysed using a TissueLyser in RIPA lysis buffer containing cOmplete and phosSTOP. Levels of pCREB, TFEB, downstream lysosomal gene products LAMP1, p62/SQSTM1, PGRN and mitochondrial master regulator PGC1a were validated by western blotting. All proteins were normalized to beta-actin levels."}, "[3]": {"tested_on": "AMPK (T172) and CREB (S133)", "assay": "P1 activation of AMPK and CREB with or without CaMKK2-inhibitor STO-609 in cortical neurons", "format": "cell-based, mouse", "description": "Mouse cortical neurons were isolated from p0 wild-type mice and seeded in a density of 250,000 per well in a 12-well tray. After 7 days in vitro the neurons were either pre-treated with STO-609 (5 uM) for 1 hour or with DMSO (control). After 1 hour, the neurons were stimulated with P1 or a scrambled peptide (Scr), with or without STO-609, in neurobasal A media and incubated at 37° C. and 5% CO2 for 20 minutes. Hereafter, the neurons were lysed in lysis buffer containing DTT and cOmplete cocktail protease inhibitor. Phosphorylation of AMPK (T172) and CREB (S133) was validated by western blotting and normalized to beta-actin."}, "[4]": {"assay": "Liver microsome stability, mouse", "format": "in vitro ADME", "conditions": "2 μM, up to 60 minutes", "description": "Reactions were stopped at timepoints between 0-60 min. and samples analysed by LCMS."}, "[5]": {"assay": "Plasma, whole brain and cerebrospinal fluid concentrations after SC or IV injection, LC MS/MS", "format": "in vivo, mouse", "conditions": "for half-life: mouse, in vivo, read-out: T½ in brain (converted)", "description": "13 mg/kg and 52 mg/kg of P1 were either subcutaneously or intravenously injected in wild-type mice in either 4.38 mM L-His, 140 mM NaCl, 0.2% Tween-20 and 1500 IU hyaluronidase (for SC, pH 6.15) or saline (IV). Both plasma, whole brain and cerebrospinal fluid concentrations were validated at different timepoints of 0.25-4 hours by LC MS/MS.\nWe further explored whether delivery to the CSF and brain would be dose-dependent by the SC route. P1 (SEQ ID NO: 1) were subcutaneously injected in wild-type mice in different concentrations of 0-52 mg/kg in 4.38 mM L-His, 140 mM NaCl, 0.2% Tween-20 and 1500 IU hyaluronidase (pH 6.15). Levels of P1 were validated in both plasma, whole brain and cerebrospinal fluid after 15 min injection by LC MS/MS.\n13 mg/kg of P1 (SEQ ID NO: 1) were subcutaneously injected in wild-type mice in different formulations in either PBS buffer, in buffer containing 4.38 mM L-His, 140 mM NaCl, 0.2% Tween-20 and 1500 IU hyaluronidase (pH 6.15) or in buffer with 4.38 mM L-His, 140 mM NaCl, 0.2% Tween-20. Levels of P1 were validated in both plasma and whole brain after 15 and 30 min. of injection by LC MS/MS."}, "[6]": {"conditions": "SC 0-52 mg/kg, 15 min after injection"}}, "note": "Like-named read-outs stand apart in the source and are kept apart here. Where a SMILES comes first, the peptide text is derived from it.", "data": [{"smiles": "CSCC[C@@H]1NC(=O)[C@H](C(C)C)NC(=O)[C@H](CC(=O)O)NC(=O)[C@H](CCC(=O)O)NC(=O)[C@H](CCC(=O)O)NC(=O)[C@H](Cc2c[nH]cn2)NC(=O)[C@H](CCC(=O)O)NC(=O)[C@H](C(C)C)NC(=O)[C@@H]2CCCN2C(=O)[C@H](CCC(=O)O)NC(=O)[C@H]([C@@H](C)O)NC1=O", "note": "[Peptide P1, [MTEPVEHEEDV]] (cyclo(MTEPVEHEEDV))", "values": [{"measurement": "reduction of mutated Huntingtin (disease-allele, MW1 antibody)", "setting": "[1]; 1 uM every 24 hour for 3 days", "value": 20, "unit": "%"}, {"measurement": "total Huntingtin (mab2166)", "setting": "[1]; 1 uM every 24 hour for 3 days", "value": "not lowering the total amount of Huntingtin significantly"}, {"measurement": "total HTT levels", "setting": "[1]; 1 uM, 8 hours of stimulation", "value": "reduces total HTT levels"}, {"measurement": "BDNF level", "setting": "BDNF, TFEB and PGC1a", "value": "upregulated"}, {"measurement": "PGC1a level", "setting": "BDNF, TFEB and PGC1a", "value": "upregulated"}, {"measurement": "TFEB level", "setting": "BDNF, TFEB and PGC1a", "value": "upregulated"}, {"measurement": "pCREB (S133) in hippocampus", "setting": "CREB", "value": "performed markedly better than LP1"}, {"measurement": "pCREB (S133) in striatum", "setting": "CREB", "value": "performed markedly better than LP1"}, {"measurement": "pCREB in striatum", "setting": "[2]; after 2 hours", "value": "significantly activates CREB"}, {"measurement": "pCREB in striatum", "setting": "[2]; at 4 hours", "value": "no significant effect"}, {"measurement": "PGC1a in striatum", "setting": "[2]; at 6 hours", "value": "significantly increased"}, {"measurement": "PGRN in striatum", "setting": "[2]; at 6 hours", "value": "significantly increased"}, {"measurement": "p62/SQSTM1 levels in striatum (autophagic flux)", "setting": "[2]; at 8 hours following injection", "value": "significantly lowered"}, {"measurement": "LAMP1 in striatum", "setting": "[2]; between 2-4 hours", "value": "significantly increased"}, {"measurement": "TFEB in striatum", "setting": "[2]; between 2-4 hours", "value": "significantly increased"}, {"measurement": "phosphorylation of AMPK (T172)", "setting": "[3]; 1 uM P1, without STO-609", "value": "significantly increased phosphorylation"}, {"measurement": "phosphorylation of CREB (S133)", "setting": "[3]; 1 uM P1, without STO-609", "value": "significantly increased phosphorylation"}, {"measurement": "P1-induced activation of AMPK", "setting": "[3]; pre-treated with 5 uM STO-609 for 1 hour", "value": "loss of P1-induced activation of AMPK"}, {"measurement": "CREB activation by P1", "setting": "[3]; pre-treated with 5 uM STO-609 for 1 hour, compared to P1-treated cells only", "value": "lowered but not totally abolished"}, {"measurement": "clearance and stability in liver microsomes", "setting": "[4]", "value": "low clearance and high stability"}, {"measurement": "difference between L-His buffer with or without hyaluronidase", "setting": "[5]; 13 mg/kg SC, plasma and whole brain, 15 and 30 min", "value": "no significant difference"}, {"measurement": "levels in plasma and whole brain in different formulations", "setting": "[5]; 13 mg/kg SC, PBS, L-His buffer with or without hyaluronidase, 15 and 30 min", "value": "measurable in the plasma and brain in all formulations"}, {"measurement": "maximal brain-plasma ratio", "setting": "[5]; IV delivery", "value": 0.034}, {"measurement": "levels in brain and CSF", "setting": "[5]; [6]", "value": "measurable in the brain and CSF at all concentrations"}, {"measurement": "levels in plasma, brain and CSF versus dose", "setting": "[5]; [6]", "value": "increased with the dosage"}, {"measurement": "maximal brain-plasma ratio", "setting": "[5]; SC delivery", "value": 0.032}, {"measurement": "half-life", "setting": "[5]; IV delivery, saline", "value": 13.9, "unit": "min"}, {"measurement": "half-life", "setting": "[5]; SC delivery, L-His buffer with hyaluronidase", "value": 19, "unit": "min"}]}]}
